Earlier results, collected in patent US12187997B2, “Integrated human organ-on-chip microphysiological systems” (President and Fellows of Harvard College, priority 2011, dated 2025).
Entries after “also recorded” stand apart in the source; their conditions may differ.

Legend:
[1] = for Clearence Mechanism (for PK): Table 1
[2] = for Organ Toxicity: Table 1
[3] = relieving dyspnea in heart failure patients

Clearence Mechanism (for PK) [1]	Compound	Organ Toxicity [2]	clinical efficacy [3]	metabolism and elimination [1]	toxicity in humans / in vivo [2]
Liver	Cc1c(C)c2c(c(C)c1O)CCC(C)(COc1ccc(CC3SC(=O)NC3=O)cc1)O2 (centres unmarked) [Troglitazone]	Liver			
Renal	CC(C)NCC(O)c1ccc(O)c(O)c1 (centres unmarked) [Isoproterenol]	Heart		primarily metabolized and excreted by the kidney in humans	
Liver	COc1ccc(C(=O)N2CCN(c3ccc4c(c3)CCC(=O)N4)CC2)cc1OC [Vesnarinone]	Heart			
Aerosol	Nc1ccn([C@H]2C[C@H](O)[C@@H](COP(=O)(O)OP(=O)(O)OP(=O)(O)OP(=O)(O)OC[C@H]3O[C@@H](n4ccc(=O)[nH]c4=O)[C@H](O)[C@@H]3O)O2)c(=O)n1 [Denufosol]				
(Crosses BBB)	Cc1ccc2c(c1)c1c(n2CCc2ccc(C)nc2)CCN(C)C1 [Latrepirdine]				
Liver	CC(=O)N1CCN(c2ccc(OCC3COC(Cn4ccnc4)(c4ccc(Cl)cc4Cl)O3)cc2)CC1 (centres unmarked) [Ketoconazole]	Liver DDI, tests			
Liver, Renal	COc1cccc2c1C(=O)c1c(O)c3c(c(O)c1C2=O)C[C@@](O)(C(=O)CO)C[C@@H]3O[C@H]1C[C@H](N)[C@H](O)[C@H](C)O1 [Doxorubicin]	Heart, gut, and bone marrow, and skin			

Second part, the compound before the results:

Compound	Clearence Mechanism (for PK) [1]	Organ Toxicity [2]	clinical efficacy [3]	metabolism and elimination [1]	toxicity in humans / in vivo [2]
Nesiritide	Proteolysis,; also recorded: Renal		failed a large clinical trial for efficacy	primarily eliminated by the kidney	
CCOC(=O)C1=C[C@@H](OC(CC)CC)[C@H](NC(C)=O)[C@@H](N)C1 [Tamiflu]	Liver; Renal	children <1 yr			
COCc1c(C(C)C)nc(C(C)C)c(/C=C/[C@@H](O)C[C@@H](O)CC(=O)O)c1-c1ccc(F)cc1 [Cerivastatin]	Liver	Skeletal; also recorded: muscle,; also recorded: Kidney, Liver			major toxicities in vivo (rhabdylomysis) and liver toxicity
Cc1nnc(SCC2=C(C(=O)O)N3C(=O)[C@@H](NC(=O)Cn4cnnn4)[C@H]3SC2)s1 [Cefazolin]		Lung, Kidney			produces pulmonary blood clots and nephrotoxicity
N.N.[Cl][Pt][Cl] [Cisplatin]	Renal				
CC(C)(C)c1ccc(C(O)CCCN2CCC(C(O)(c3ccccc3)c3ccccc3)CC2)cc1 (centres unmarked) [Terfenadine]		Heart; also recorded: arrhythmia			cardiotoxic at higher doses in humans
